Experiments:
Type in all cases: cell-based, Saccharomyces cerevisiae
[1] = target: T1, caspase-1 (Homo sapiens, UniProt P29466); test: growth rescue of S. cerevisiae expressing human caspase-1
T1 construct: gene CASP1
T1 sequence (P29466 1-404): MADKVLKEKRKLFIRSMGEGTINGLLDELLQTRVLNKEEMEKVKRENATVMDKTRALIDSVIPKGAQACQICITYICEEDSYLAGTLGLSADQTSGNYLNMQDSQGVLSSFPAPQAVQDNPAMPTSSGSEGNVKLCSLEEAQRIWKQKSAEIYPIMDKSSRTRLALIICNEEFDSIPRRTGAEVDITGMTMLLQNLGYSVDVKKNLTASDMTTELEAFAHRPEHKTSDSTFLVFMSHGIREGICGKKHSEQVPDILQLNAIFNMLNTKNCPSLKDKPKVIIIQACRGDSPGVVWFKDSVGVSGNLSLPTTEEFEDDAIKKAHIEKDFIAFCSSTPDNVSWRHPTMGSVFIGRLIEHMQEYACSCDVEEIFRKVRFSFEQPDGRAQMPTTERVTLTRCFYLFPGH

[2] = target: T2, caspase-3 (Homo sapiens, UniProt P42574); test: growth rescue of S. cerevisiae expressing active human caspase-3
T2 construct: gene CASP3; active caspase-3 fused to β-galactosidase (caspase-3–LacZ)
T2 sequence (P42574 29-175): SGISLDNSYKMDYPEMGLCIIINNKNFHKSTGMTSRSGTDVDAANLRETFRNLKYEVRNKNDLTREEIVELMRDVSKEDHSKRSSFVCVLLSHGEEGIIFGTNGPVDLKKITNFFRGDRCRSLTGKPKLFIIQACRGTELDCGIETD
T2 sequence (P42574 176-277): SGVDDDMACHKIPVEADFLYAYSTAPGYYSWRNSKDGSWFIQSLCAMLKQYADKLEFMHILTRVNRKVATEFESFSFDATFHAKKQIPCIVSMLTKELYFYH

[3] = target: T3, caspase-8 (Homo sapiens, UniProt Q14790); test: growth rescue of S. cerevisiae expressing human caspase-8
T3 construct: gene CASP8
T3 sequence (Q14790 whole entry): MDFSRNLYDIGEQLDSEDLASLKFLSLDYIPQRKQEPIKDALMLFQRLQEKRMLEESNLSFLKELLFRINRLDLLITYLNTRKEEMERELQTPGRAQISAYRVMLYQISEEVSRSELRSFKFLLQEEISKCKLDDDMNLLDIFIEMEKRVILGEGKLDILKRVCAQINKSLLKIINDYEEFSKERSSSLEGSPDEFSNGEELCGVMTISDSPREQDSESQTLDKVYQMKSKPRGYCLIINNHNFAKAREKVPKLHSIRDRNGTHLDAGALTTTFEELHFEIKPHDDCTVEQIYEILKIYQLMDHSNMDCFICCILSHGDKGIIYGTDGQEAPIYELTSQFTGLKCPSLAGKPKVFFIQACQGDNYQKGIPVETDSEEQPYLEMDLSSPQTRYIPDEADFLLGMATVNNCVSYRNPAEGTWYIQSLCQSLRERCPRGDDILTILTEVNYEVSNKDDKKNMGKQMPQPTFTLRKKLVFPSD
Source text: growth rescue of S. cerevisiae expressing human caspase-8 on caspase-8 | higher concentrations of QVD were needed to restore the growth rate of yeast expressing caspase-8

IC50 [1]: 21.4 µM
IC50 [2]: 1.7 µM
IC50 [3]: 30 µM
SMILES: CC(C)[C@H](NC(=O)c1ccc2ccccc2n1)C(=O)N[C@@H](CC(=O)O)C(=O)COc1c(F)cccc1F [QVD, Q-VD-OPh]
